Measurements as given in article PMC9909341, “TLQP-21 is a low potency partial C3aR activator on human primary macrophages” (Frontiers in Immunology, 2023).

Columns and labels:
[1] = biological target: T1, human C3aR (Homo sapiens, UniProt Q16581); experiment: phospho-ERK1/2 assay in CHO-C3aR cells; type: cell-based; conditions: n = 3-4; for EC50: CHO cells stably expressing human C3aR, serum-starved, AlphaLISA p-ERK1/2, combined data, read-out: EC50 (pERK1/2), CHO-C3aR
T1 sequence (Q16581 1-482): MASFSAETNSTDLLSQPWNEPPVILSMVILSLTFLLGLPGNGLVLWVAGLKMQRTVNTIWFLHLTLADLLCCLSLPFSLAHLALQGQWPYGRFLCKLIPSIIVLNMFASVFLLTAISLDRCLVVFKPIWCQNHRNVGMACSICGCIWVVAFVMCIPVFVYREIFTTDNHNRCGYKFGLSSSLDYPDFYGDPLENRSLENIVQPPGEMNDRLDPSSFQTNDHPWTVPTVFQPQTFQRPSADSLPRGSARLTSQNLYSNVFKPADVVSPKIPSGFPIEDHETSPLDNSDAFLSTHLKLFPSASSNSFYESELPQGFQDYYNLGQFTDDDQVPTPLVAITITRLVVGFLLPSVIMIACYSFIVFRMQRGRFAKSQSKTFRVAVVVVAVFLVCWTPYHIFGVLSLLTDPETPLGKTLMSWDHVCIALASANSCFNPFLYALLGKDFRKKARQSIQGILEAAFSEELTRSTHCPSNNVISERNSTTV
Procedure: (§1) Cell lines for this study were cultured as previously described ([20]). Non-transfected CHO-K1 cells or CHO cells stably expressing the human C3aR (CHO-C3aR; Product # ES-730-C, PerkinElmer, Melbourne, Australia) were maintained in Ham’s F12 medium containing 10% foetal bovine serum (FBS), 100 IU/ml penicillin and 100 μg/ml streptomycin, with additional 400 μg/ml G418 (In vivoGen, San Diego, USA) added for CHO-C3aR cell culture. HEK293 cells were maintained in DMEM medium containing 10% FBS, 100 IU/ml penicillin and 100 μg/ml streptomycin. All cell lines were maintained in T175 flasks (37°C, 5% CO2) and subcultured at 80-90% confluency using 0.05% trypsin-EDTA in DPBS.
(§2) Ligand-induced ERK1/2 phosphorylation was assessed using the AlphaLISA Surefire Ultra p-ERK1/2 (Thr202/Tyr204) kit (PerkinElmer, Melbourne, Australia) following the manufacturer’s protocol as previously described ([18], [20], [22]). Briefly, CHO-K1, CHO-C3aR, CHO-C5aR1, HMDMs (50,000/well) or BMDMs (90,000/well) were seeded in tissue culture-treated 96-well plates (Corning, Corning, USA) for 24 h and serum-starved overnight. All ligand dilutions were prepared in serum-free medium (SFM) containing 0.1% BSA. For inhibition assays, cells were pre-treated with the following ligands (5 µM SB290157, or respective concentrations of hC3a, mC3a, hC5a, hTLQP-21, and mTLQP-21) or the solvent-only control for 30 min before agonist (hC3a, hTLQP-21 and mTLQP-21) addition. The concentration and identity of the ligands are described in detail in the figure legends. For stimulation, cells were treated with ligands at the indicated concentrations for 10 min at RT and then immediately lysed using AlphaLISA lysis buffer on a microplate shaker (450 rpm, 10 min). For the detection of phospho-ERK1/2 content, cell lysate (5 μL/well) was transferred to a 384-well ProxiPlate (PerkinElmer, Melbourne, Australia) and added to the donor and acceptor reaction mix (2.5 μL/well, respectively), followed by a 2-h incubation at RT in the dark. On a Tecan Spark 20M (Tecan, Männedorf, Switzerland), the plate was measured using standard AlphaLISA settings.
(§3) All experiments were conducted in triplicates and repeated on three separate occasions unless otherwise specified. Data was analysed using GraphPad software (Prism 9.1). Data from each individual repeat was normalised accordingly (as specified in the figure legends) before being combined and expressed as mean ± standard error of the mean (S.E.M.) unless otherwise described. For all dose-response studies, logarithmic concentration-response curves were plotted using combined data and analysed to determine the respective potency values. Statistical analysis was performed using two-way ANOVA with Dunnett’s post hoc analysis. Donor-matched comparisons were made for HMDM experiments. Differences were deemed significant when p < 0.05.
Figure 1 hTLQP-2 and mTLQP-21 activate ERK signalling in CHO-K1 and CHO-C3aR cells. hTLQP-21, mTLQP-21 and plasma-derived human C3a were tested in (A) non-transfected CHO-K1 or (B) CHO cells stably expressing human C3aR. CHO cells were serum-starved overnight and then stimulated with various ligands for 10 min before being lysed. The phospho-ERK1/2 content in the lysate was measured and expressed as fold-baseline before being combined. The maximum relative pERK1/2 activity induced by each ligand is shown in (C). Data represent mean ± S.E.M. of triplicate measurements from 3-4 independent experiments (n = 3-4). Two-way ANOVA with Dunnett’s post hoc analysis. *P < 0.05, ***P < 0.001, ****P < 0.0001. Ligand treated versus medium treated cells for each cell line.

[2] = system: CHO-K1 cells (endogenous C3aR); experiment: phospho-ERK1/2 assay in non-transfected CHO-K1 cells; type: cell-based, Chinese hamster
Procedure: as §1
Ligand-induced ERK1/2 phosphorylation was assessed using the AlphaLISA Surefire Ultra p-ERK1/2 (Thr202/Tyr204) kit (PerkinElmer, Melbourne, Australia) following the manufacturer’s protocol as previously described ([18], [20], [22]). Briefly, CHO-K1, CHO-C3aR, CHO-C5aR1, HMDMs (50,000/well) or BMDMs (90,000/well) were seeded in tissue culture-treated 96-well plates (Corning, Corning, USA) for 24 h and serum-starved overnight. […] On a Tecan Spark 20M (Tecan, Männedorf, Switzerland), the plate was measured using standard AlphaLISA settings.
as §3, with “Statistical analysis was performed using two-way ANOVA with Dunnett’s post hoc analysis. Donor-matched comparisons were made for HMDM experiments. Differences were deemed significant when p < 0.05.” left out
Figure 1 hTLQP-2 and mTLQP-21 activate ERK signalling in CHO-K1 and CHO-C3aR cells. hTLQP-21, mTLQP-21 and plasma-derived human C3a were tested in (A) non-transfected CHO-K1 or (B) CHO cells stably expressing human C3aR. […] The phospho-ERK1/2 content in the lysate was measured and expressed as fold-baseline before being combined. […]

[3] = system: HMDM (endogenous human C3aR); type: cell-based; conditions: for EC50: primary human macrophages, 50,000/well, AlphaLISA p-ERK1/2, n = 4 donors, read-out: EC50 (pERK1/2), HMDM
Excerpt: HMDMs were generated and cultured as previously described ([20]), with experiments approved by The University of Queensland Human Research Ethics Committee. Briefly, human buffy coat blood from anonymous healthy donors was obtained through the Australian Red Cross Blood Service (Brisbane, Australia). Human CD14+ monocytes were isolated from blood using Lymphoprep density centrifugation (STEMCELL, Melbourne, Australia) followed by CD14+ MACS magnetic bead separation (Miltenyi Biotec, Sydney, Australia). The isolated monocytes were differentiated for 7 days in Iscove’s Modified Dulbecco’s Medium supplemented with 10% FBS, 100 IU/ml penicillin, 100 μg/ml streptomycin and 15 ng/ml recombinant human macrophage colony stimulating factor (BioLegend, San Diego, USA) on 10 mm square dishes (Bio-strategy, Brisbane, Australia). Non-adherent cells were removed by washing with DPBS, and the adherent differentiated HMDMs were harvested by gentle scraping.
as §2, §3
Figure 3 Agonistic and antagonistic activities of hTLQP-21 and mTLQP-21 in human monocyte-derived macrophages. Serum-starved HMDMs (50,000/well) were (A) stimulated with medium or respective ligands at the indicated concentrations for 10 min and then lysed, or (B) pre-treated with 5 µM SB290157 for 30 min prior to stimulation. (C) HMDMs were pre-treated with 10 μM hTLQP-21 or mTLQP-21 for 30 min before being stimulated with respective concentrations of human C3a. (D) HMDMs were pre-treated with 10 nM hC3a, 10 μM hTLQP-21 or mTLQP-21 for 30 min before being stimulated with the same concentrations of the above ligands for 10 min and then lysed. (E) HMDMs were pre-treated with 10 μM hTLQP-21 or mTLQP-21 for 30 min before being stimulated with respective concentrations of human C5a for 10 min and then lysed. […]

Substance | maximum relative pERK1/2 activity, CHO-C3aR ([1]; 10 min, Figure 1C) [fold baseline] | EC50 ([1]; 10 min stimulation at RT) [nM] | logEC50 ± SE (pERK1/2), CHO-C3aR ([1]; CHO-C3aR, 10 min stimulation at RT) | % C3a activity ± SE, CHO-C3aR ([1]; efficacy relative to hC3a, fold baseline normalised) [%] | maximum relative pERK1/2 activity, CHO-K1 ([2]; 10 min, Figure 1C, n = 3-4) [fold baseline] | relative efficacy of ERK signalling in CHO-K1 versus CHO-C3aR ([2]; fold lower than in CHO-C3aR cells) [fold] | logEC50 ± SE (pERK1/2), HMDM ([3]; HMDM, 10 min stimulation at RT, n = 3-4) | EC50 ([3]; 10 min stimulation at RT) [nM] | % C3a activity ± SE, HMDM ([3]; relative to hC3a, n = 3-4) [%] | ERK1/2 phosphorylation, CHO-K1 ([2]; 10 min stimulation at RT, n = 3-4)
C3a: Table 1 label: human C3a in CHO-C3aR and HMDM, recombinant mouse C3a in BMDM | 7.3 | 0.15 | -9.8 ± 0.1 | 100 ± 2.8 | 2.7 | 2.6 | -9.9 ± 0.1 | 0.11 | 100 ± 6.2 | 
hC3a: purified (plasma-derived) human C3a, purchased from Merck |  | 0.15 |  |  |  |  |  | 0.11 |  | significantly triggered ERK1/2 phosphorylation in CHO-K1 cells
